Data reported in patent US20200360520A1, “USE OF RIFAMYCIN-QUINOLIZIDONE COUPLING MOLECULE” (priority 2019, published 2020).
In brackets after ≈: the same amount, converted by molar mass. Read-outs that look alike come from different tables or passages of the source.

How the values were obtained:
Assay type in all cases: cell-based
Mycobacterium avium [1] = test: MBC test (plating on agar, CFU count); conditions: Mycobacterium avium, read-out: Minimum Bactericidal Concentration (MBC)
Mycobacterium avium [2] = test: MIC by micro broth dilution method (resazurin microtiter assay); conditions: read-out: Minimum Inhibitory Concentration (MIC)
Mycobacterium abscessus [3] = test: MBC test (plating on agar, CFU count); conditions: for Minimum Bactericidal Concentration (MBC): MH Culture Medium; for MBC: Mycobacteroides abscessus, 7H9 Culture Medium, read-out: Minimum Bactericidal Concentration (MBC)
Mycobacterium abscessus [4] = test: MIC by micro broth dilution method (resazurin microtiter assay); conditions: Mycobacteroides abscessus, read-out: Minimum Inhibitory Concentration (MIC)
Mycobacterium kansasii [5] = test: as above; conditions: Mycobacterium kansasii, Mycobacterium kansasii, read-out: Minimum Inhibitory Concentration (MIC)
Mycobacterium kansasii [6] = test: MBC test (plating on agar, CFU count); conditions: Mycobacterium kansasii, Mycobacterium kansasii, read-out: Minimum Bactericidal Concentration (MBC)
[7] = 7H9 Culture Medium, Mycobacterium avium Smooth
[8] = MH Culture Medium, Mycobacterium avium Smooth
[9] = 7H9 Broth, Mycobacterium avium Smooth
[10] = MH Broth, Mycobacterium avium Smooth

| MIC (Mycobacterium avium [2]; 7H9 Broth, Mycobacterium avium Rough) [µg/mL] | MIC (Mycobacterium avium [2]; MH Broth, Mycobacterium avium Rough) [µg/mL] | SMILES | MBC (Mycobacterium avium [1]; 7H9 Culture Medium, Mycobacterium avium Rough) [µg/mL] | MBC (Mycobacterium avium [1]; [7]) [µg/mL] | MBC (Mycobacterium avium [1]; MH Culture Medium, Mycobacterium avium Rough) [µg/mL] | MBC (Mycobacterium avium [1]; [8]) [µg/mL] | MIC (Mycobacterium avium [2]; [9]) [µg/mL] | MIC (Mycobacterium avium [2]; [10]) [µg/mL] | Minimum Bactericidal Concentration (MBC) (Mycobacterium abscessus [3]) [µg/mL] | MBC (Mycobacterium abscessus [3]) [µg/mL] | MIC (Mycobacterium abscessus [4]; 7H9 Broth) [µg/mL] | MIC (Mycobacterium abscessus [4]; MH Broth) [µg/mL] | MIC (Mycobacterium kansasii [5]; 7H9 Broth) [µg/mL] | MIC (Mycobacterium kansasii [5]; MH Broth) [µg/mL] | MBC (Mycobacterium kansasii [6]; 7H9 Culture Medium) [µg/mL] | MBC (Mycobacterium kansasii [6]; MH Culture Medium) [µg/mL] |
| --- | --- | --- | --- | --- | --- | --- | --- | --- | --- | --- | --- | --- | --- | --- | --- | --- |
| > 64 | 2 (≈ 3.42 µM) | NCC[C@H](O)C(=O)N[C@@H]1C[C@H](N)[C@@H](O[C@H]2O[C@H](CN)[C@@H](O)[C@H](O)[C@H]2O)[C@H](O)[C@H]1O[C@H]1O[C@H](CO)[C@@H](O)[C@H](N)[C@H]1O [Amikacin, amikacin] | > 64 | > 64 | > 64 | > 64 | 2 (≈ 3.42 µM) | 2 (≈ 3.42 µM) | >64 | > 64 | 32 (≈ 54.6 µM) | 16 (≈ 27.3 µM) | 16 (≈ 27.3 µM) | 1 (≈ 1.71 µM) | 64 (≈ 109 µM) | > 64 |
|  |  | O=C(O)c1cn(C2CC2)c2cc(N3CCNCC3)c(F)cc2c1=O [Ciprofloxacin, ciprofloxacin] |  | > 64 |  | > 64 | > 64 | > 64 | >64 | > 64 | 16 (≈ 48.3 µM) | > 64 | > 64 | > 64 | > 64 | > 64 |
